Columns and labels:
[1] = test system: TPA-induced inflammation of mouse ears; assay: Potentiation of budesonide in TPA-induced mouse ear inflammation (Experiment 10); assay type: in vivo; details: BALB/C mice, 24 h
Method: Mice (BALB/C) were kept in individual cages, at 20° C. and 55% relative humidity with 12-h light/12-h dark cycle, in a facility that met the Canadian Council on Animal Care (C.C.A.C.) guidelines. The animals were subjected to an 18-hour starving period prior to treatments. […] of mice were treated in the following manner: • (Treatment-1) No application of cream (n=3); • (Treatment-2) Neutral base cream (n=3); • (Treatment-3) Budesonide (0.1%) in neutral base cream (n=3); • (Treatment-4) Budesonide (0.01%) in neutral base cream (n=3); • (Treatment-5) Budesonide (0.01%)+thylakoid extract (0.05%) in neutral base cream (n=3). All treatments were applied 4 and 8 hours following the inflammatory stress (post-treatment) at a dose of 2 μl/cm^2. Animals were kept in the dark for the duration of the treatments. Prior to treatment, mouse ears were subjected to an inflammatory stress by a topical application of phorbol 12-myristate 13-acetate (TPA) (Sigma Chemicals Co.). 20 μL of TPA (0.2 μg/μL) in an acetone solution was applied (Griswold et al., 1998). The right ear of each mouse was treated with TPA whereas the left ear served as the unstressed control. After 24 hours, the mice were sacrificed and a punch of 6 mm in diameter of both the left and right ears was sampled. Ear punch thickness was measured by an electronic digital caliper 0.01 mm (Traceable).

[2] = test system: TNBS-induced colonic damage in rat intestine; assay: Potentiation of mesalamine in TNBS-stressed rat intestine (Experiment 11); assay type: in vivo; details: Wistar rats, mesalamine 57 mg/kg with or without extract 2 mg/kg in the intestinal lumen 24 and 48 h before TNBS
Method: Male Wistar rats (Charles River Laboratories, Montreal) were kept in individual cages, at 20° C. and 55% relative humidity with 12-h light/12-h dark cycle, in a facility that met the Canadian Council on Animal Care (C.C.A.C.) guidelines. The rats were subjected to a 24-hour starving period prior to inflammatory stress induction. Four groups of rats were treated in the following manner: • (Treatment-1) Non-stressed control (n=3); • (Treatment-2) 2,4,6-Trinitrobenzenesulfonic acid (inflammatory agent) in the intestinal lumen (n=3); • (Treatment-3) Mesalamine (5-aminosalicyclic acid; NSAID) (57 mg/kg) administered directly in the intestinal lumen 24 and 48 hours prior to administration of the stress agent (n=3) • (Treatment4) Thylakoid extract (0.05%) (2 mg/kg)+mesalamine (57 mg/kg) administered directly in the intestinal lumen 24 and 48 hours prior to administration of the stress agent (n=3). Twenty-four hours later, the rats were sacrificed and a 10 cm excision of the intestine was sampled.

Row | Compound | decrease of ear punch thickness ([1]; budesonide 0.01% in neutral base cream 4 and 8 h after TPA) [%] | decrease of ear punch thickness compared to the untreated control (Treatment-1) ([1]; budesonide 0.1% in neutral base cream 4 and 8 h after TPA) [%] | macroscopic colonic damage score (scale 0-10) [2]
1 | CCCC1O[C@@H]2C[C@H]3[C@@H]4CCC5=CC(=O)C=C[C@]5(C)[C@H]4[C@@H](O)C[C@]3(C)[C@]2(C(=O)CO)O1 (stereo partly drawn) [Budesonide, budesonide] | 32.6 | 58.2 | –
2 | Nc1ccc(O)c(C(=O)O)c1 [mesalamine, 5-aminosalicyclic acid] | – | – | 4.0

Source: patent publication US7329423B2, “Compositions comprising thylakoids useful in the modulation of inflammation process” (Purecell Technologies Inc., priority 2001, dated 2008)
